Test results reported in the SangsterLogP compilation.

Test: method code SF-HPLC, from DOI: 10.1021/jm00047a008, PMID: 7932579
Settings: pH 5.0

logD	SMILES
2.04	Cc1ccc2c(c1)c(C)c1c3ccccc3nc-1n2C

Same assay, conditions: pH 9.0

logD	SMILES
2.44	c1ccc2nc3[nH]c4ccccc4c3cc2c1
2.58	Cc1c2c3ccccc3nc-2n(C)c2ccccc12
3.04	Cn1c2nc3ccccc3c-2cc2ccccc21
2.92	Cc1cccc2c(C)c3c(nc12)[nH]c1ccccc13
2.58	Cc1ccc2nc3[nH]c4ccc(C)cc4c3c(C)c2c1
2.42	Cc1ccc2nc3n(C)c4ccc(C)cc4c(C)c-3c2c1
2.46	Cc1c2c3ccccc3nc-2n(C)c2c(C)cccc12
2.69	Cc1c2ccccc2nc2[nH]c3ccccc3c12
